Laboratory results: patent US10087465B2, “Trans-acting elements for intracellular delivery of nucleic acid sequences” (The United States of America, as Represented by the …, priority 2014, dated 2018)
Entries after “also recorded” stand apart in the source; their conditions may differ. {F1} = fluorescein label

Assays:
Type in all cases: cell-based
[1] = system: HEK 293, HeLa, HeLa pLuc705, MCF7 and SK—N—SH live cells; assay: Flow cytometry (FACS) analysis of cellular uptake of fluorescently-labeled PNA or PMO oligomers in live cells
Procedure: (§1) Complex formation between PNA or PMO oligomers and dTtaPS or dAtaPS: Appropriate amounts of PNA or PMO oligomers were diluted in serum-free OptiMEM™ (20 μl). dTtaPS or dAtaPS was added to the oligomer solution to achieve a final concentration that is twice that of the oligomer. After 30 min incubation at 37° C., the PNA or PMO oligomer: dTtaPS or dAtaPS complexes were stored at 4° C. for 15 minutes or until used. Stock solutions (2×) of the complexes were made by adding OptiMEM™ to appropriate volumes.
Flow cytometry analysis of cellular uptake in live cells: The internalization of fluorescently-labeled PNA or PMO sequences (Table 1) in HEK 293, HeLa, MCF7 and SK—N—SH cells was assessed by flow cytometry. Cells were seeded in a 96-well plate (10^4 cells/well) and allowed to grow at 37° C. for 24 h in 10% FBS-MEM. The culture medium of each well was then replaced with fresh medium (100 μl) containing any of the fluorescently-labeled PNA or PMO sequences, the final concentration of which was 1 μM. After an incubation of 18 h at 37° C., the medium was removed from each well by suction and 0.25% Trypsin (50 μl) was added. Upon complete cell detachment, a solution (100 μl) of ice-cold 2% FBS in phosphate-buffered saline (PBS, pH 7.4) was added to each well. The cells were collected into tubes, to which was added 0.4% Trypan blue (50 μl) and 200 µM monensin (20 μl), and analyzed by fluorescence-activated cell sorting (FACS) using a BD FACScan™ flow cytometer. A total of 5000 events were counted and the results were reported as a percentage of the cells that have internalized the fluorescently-labeled oligomers.

HeLa pLuc 705 cells [2] = assay: Confocal microscopy analysis of dTtaPS-assisted internalization of PNA or PMO oligomers; conditions: dTtaPS-assisted uptake; oligomer 1.0, dTtaPS 2.0 μM; 12 h at 37° C.
Procedure: Confocal microscopy analysis of dTtaPS-assisted internalization of PNA or PMO oligomers in HeLa pLuc 705 cells: HeLa pLuc 705 cells (5×10^4 cells/well) were seeded in 8-well chambered slides and cultured for 24 h at 37° C. in 10% FBS-MEM (200 μl). The culture medium of each well was then replaced with 20% FBS containing fresh medium (200 μl) and the fluoresceinated PNA or PMO oligomer:dTtaPS complex that was prepared as described above to provide an oligomer and dTtaPS final concentration of […] and 2.0 μM, respectively. After a 12 h incubation at 37° C., the medium was removed and a 0.4% Trypan Blue solution (200 μl) was added to quench the fluorescence stemming from extracellular fluoresceinated oligonucleotides. After a period of 5 minutes at ambient temperature, the cells were washed twice with PBS (pH 7.4, 200 μl) followed by the addition of fresh phenol red-free DMEM (200 μl) supplemented with 10% FBS. The intracellular distribution of fluorescence was determined without fixation using a Leica SP8 confocal microscope system and analysed using the Leica LASAF software. Hoechst 33342 was used, in accordance with the manufacturer's staining protocols, for the detection of nuclei. Images were acquired at a 63× magnification.

HeLa pLuc705 cells [3] = assay: Luciferase splice correction assay; conditions: for luciferase activity / internalization of the oligomer in the absence of PS-dT8[3+] (dTtaPS): no transfection element
Procedure: The efficiency of PS-dT8[3+] in the cellular uptake of polyA-tailed PNA oligomers was assessed through the luciferase splice correction assay in which the mutated intron 2 of the human β-globin gene has been inserted within the coding sequence of a luciferase reporter gene (pLuc705). The activation of a cryptic splice site in this intron leads to a defective luciferase enzyme. In the presence of a PNA oligomer complementary to the aberrant splice site, correct splicing is restored and results in an active luciferase. A concentration-dependence of splice correction activity by PS-dT8[3+]-mediated internalization of the PNA oligomer 10 in HeLa pLuc705 cells is shown in FIG. 12.
as §1
Luciferase assay protocol: HeLa pLuc 705 cells were seeded in a 96-well plate (2×10^4 cells/well) and allowed to grow at 37° C. for 18 h in 10% FBS-DMEM. The culture medium of each well was then replaced with either fresh serum-free or 20% serum-containing OptiMEM™ (50 μl) for experiments intended to be performed in serum-free or in 10% serum-containing media. A 2× solution of PNA or PMO oligomer:dTtaPS or dAtaPS complexes (50 μl) was added to the cells in order to achieve pre-determined complex concentrations, as indicated in the Figures. After a 4-hour incubation at 37° C., 20% FBS in OptiMEM™ (100 μl was added to serum-free experiments and cells were incubated for an additional 18 h at 37° C. The media was then removed by suction and the cells were mixed with a cell lysis reagent (50 μl) and agitated at ambient temperature for 10 minutes. The cell lysate (30 μl) was placed in a white 96-well plate and Bright-Glo™ reagent (20 μl) was added. Luciferase activity was measured using a microplate reader. For each well, luminescence was integrated over a period of 1 sec and recorded as relative light units (RLU). Luminescence measurements were normalized to the amount of protein present in the test sample.
Appropriate amounts of PNA/PMO oligomers were diluted in OptiMEM™ (20 μL) to achieve the concentration of 1 μM or as indicated in the Figures. PS-dT8[3+] or PS-dAs[3+] was added to the above oligomer solutions. After a 30 min incubation at 37° C., the PNA/PMO oligomer:PS-dT8[3+] or PS-dA8[3+] complexes were removed and kept at 4° C. for 15 minutes or until used. Stock solutions of the complexes were made by adding OptiMEM™ to appropriate volumes.
Luciferase Assay: Prior to performing experiments, HeLa pLuc 705 cells were seeded in a 96-well plate (2×10^4 cells/well) and allowed to grow at 37° C. for 18 h in 10% FBS DMEM. The culture medium of each well was then replaced with either fresh 50 μL serum free or 20% serum-containing OptiMEM™ for experiments intended to be performed in serum free or in 10% serum-containing media. A 2× solution of the PNA/PMO oligomer:PS-dT8[3+] or PS-dAs[3+] complexes (50 μL) was added to the cells in order to achieve a pre-determined concentration as indicated in the figures. After a 4-hour incubation at 37° C., 20% FBS in OptiMEM (100 μL) was added to serum free experiments and cells were incubated for an additional 18 h at 37° C. The media was then removed by suction and the cells were mixed with a cell lysis reagent (50 μL) and agitated at ambient temperature over a period of 10 minutes. The cell lysate (30 μL) was placed in white 96-well plate and Bright-Glow™ reagent (20 μL) was added. Luciferase activity was measured using a microplate reader. […]

HeLa pLuc705 cells [4] = assay: Cytotoxicity study with commercial cell-counting kit (CCK-8); conditions: oligomer 1.0 μM, dTtaPS 2.0 μM; 18 h; compared to medium or absence of dTtaPS
Procedure: Flat-bottom 96-well plates were purchased from BD-Falcon. The CCK-8 Kit for cytotoxicity studies was purchased from Dojindo Molecular Technologies.
The cytotoxicity of PNA oligomer 10:dTtaPS and PMO oligomer 21:dTtaPS complexes in HeLa pLuc 705 cells was evaluated over a period of 18 h using a commercial cell-counting kit.

HeLa pLuc 705 cells [5] = assay: Energy-dependence of the dTtaPS-assisted internalization of PNA oligomer 10; conditions: dTtaPS-mediated uptake; incubation of 1 h
Procedure: Energy-dependence of the dTtaPS-assisted internalization of PNA oligomer 10 in HeLa pLuc 705 cells: HeLa pLuc 705 cells were seeded in a 96-well plate (2×10^4 cells/well) and allowed to grow at 37° C. for 18 h in 10% FBS-DMEM. While the cell culture was maintained at 37° C. or 4° C., a 2× solution of a PNA oligomer 10:dTtaPS complex was prepared as described above. The cell culture medium was replaced with the PNA oligomer:dTtaPS complex solution to provide an oligomer and dTtaPS final concentration of […], respectively. After an incubation of 1 h at 37° C. or 4° C., the medium was removed by suction and luciferase activity was measured as described above in the Luciferase assay protocol. Luminescence measurements were normalized to the amounts of protein present in the test samples and reported as percent luminescence remaining relative to that of the experiment performed at 37° C.

HeLa pLuc 705 cells [6] = assay: Competition assay with PS-dT8 (luciferase readout); conditions: PNA oligomer 10 1.0 μM, dTtaPS 1.0 μM, PS-dT8 1.0, 2.0 or 4.0 μM
Procedure: Competition assay: HeLa pLuc 705 cells were seeded in a 96-well plate and grown in 10% FBS-DMEM as described above. Predetermined amounts of polyA-tailed PNA oligomer 10 and octathymidilyl DNA phosphorothioate (PS-dT8) were placed in individual microfuge tubes so that the molar ratio of PNA:PS-dT8 in each tube was 1:1, 1:2 or 1:4. OptiMEM™ (20 μl) was added to each of the three tubes, which were then placed in a heating block pre-heated to 60° C. After 2 min, the tubes were removed from the heating block, allowed to cool slowly to 20° C., and then, left standing in a cold room (4° C.) for 15 min. dTtaPS was added to the mixture of oligomers of each tube to achieve a concentration that is equimolar to that of the PNA oligomer 10. After a 30 min incubation at 37° C., the PNA/PS-dT8:dTtaPS complexes were stored at 4° C. for 15 minutes or until used. […] The cells were then incubated for an additional 30 min at 37° C., whereupon luciferase activity was measured as described above in the Luciferase assay protocol. Luminescence measurements were normalized to the amounts of protein present in the test samples and reported as percent luminescence remaining relative to that of the experiment performed in the absence of PS-dT8.

Substance: PMO oligomer 18: commercial PMO, CCTCTTACCTCAGTTACA-AAAAAA-F1, SEQ ID NO. 12 (CCTCTTACCTCAGTTACAAAAAAA; all phosphorodiamidate morpholino (PMO), 3' {F1})
- PS-dT8[3+] (dTtaPS)-mediated delivery of fluoresceinated PMO oligomers ([1]; PMO oligomer 1 μM, PS-dT8[3+] 2 μM, all cell lines, FIG. 17, listed as 18): confirmed the dTtaPS-assisted delivery
- intracellular distribution of fluorescence (HeLa pLuc 705 cells [2]): endosomal sequestration of 18 and modest nuclear fluorescence

Substance: PMO oligomer 21: commercial PMO, CCTCTTACCTCAGTTACA-AAAAAA, SEQ ID NO. 15 (CCTCTTACCTCAGTTACAAAAAAA; all phosphorodiamidate morpholino (PMO))
- luciferase activity / internalization of the oligomer in the absence of PS-dT8[3+] (dTtaPS) (HeLa pLuc705 cells [3]; listed as 21): reduced to that of the negative control oligomer 22
- cytotoxicity of oligomer:dTtaPS complexes (HeLa pLuc705 cells [4]): did not induce significant cytotoxicity

Substance: PNA oligomer 7: commercial PNA, F1-CCTCTTACCTCAGTTACA-AAAAAA-NH2, SEQ ID NO. 1 (CCTCTTACCTCAGTTACAAAAAAA; all peptide nucleic acid (PNA), 5' {F1}; PNA with C-terminal amide, further chemistry not fully specified)
- mean fluorescence intensity (MFI) after internalization, relative to that of PMO oligomer 18 ([1]; dTtaPS-mediated uptake, FACS analysis): ~10 fold
- PS-dT8[3+] (dTtaPS)-mediated cellular internalization of fluoresceinated PNA oligomers ([1]; in the presence of PS-dT8[3+], oligomer 1 μM, all cell lines under study, FIG. 11): efficiently internalized
- intracellular distribution of fluorescence (HeLa pLuc 705 cells [2]): endosomal sequestration of 7 is predominant

Substance: PNA oligomer 10: commercial PNA, H-CCTCTTACCTCAGTTACA-AAAAAA-NH2, SEQ ID NO. 4 (CCTCTTACCTCAGTTACAAAAAAA; all peptide nucleic acid (PNA); PNA with C-terminal amide)
- luciferase activity / internalization upon PS-dA8[3+] (dAtaPS)-mediated delivery of PNA oligomers (HeLa pLuc705 cells [3]; PS-dA8[3+] 2.0 μM, compared with PS-dT8[3+]:10 complex, FIG. 16, listed as 10): No significant level of luciferase activity was detected; also recorded: Poor luciferase activity
- luciferase activity (splice correction) upon PS-dT8[3+] (dTtaPS)-assisted delivery of PNA oligomers (HeLa pLuc705 cells [3]; PS-dT8[3+] 2 μM, FIG. 12, 13, 15, listed as 10): induced splice correction of the pre-mRNA encoding luciferase, in a dose-dependent manner
- luciferase activity / internalization of the oligomer in the absence of PS-dT8[3+] (dTtaPS) (HeLa pLuc705 cells [3]): no luciferase activity was detected
- decrease of luciferase activity production at 4° C. relative to 37° C. (HeLa pLuc 705 cells [5]): at least 50%
- cytotoxicity of oligomer:dTtaPS complexes (HeLa pLuc705 cells [4]): did not induce significant cytotoxicity

Substance: octathymidilyl DNA phosphorothioate [PS-dT8]
- decrease of luciferase activity production relative to control without PS-dT8 (HeLa pLuc 705 cells [6]): ≤ 80%
